Test results from patent US11129867B2, “Method of treating cancer cells” (priority 2017, dated 2021).
Where a SMILES comes first, the peptide text is derived from it. The star is where a group is joined. X1 = CN(C)c1ccc2c(-c3ccc(C(=O)*)cc3C(=O)[O-])c3ccc(=[N+](C)C)cc-3oc2c1

Key:
H520 = assay: WST-8 cell viability assay, H520; format: cell-based; conditions: H520 (lung cancer), different concentrations, 48 hours, FIG. 5
Description: (§1) Human oral squamous cell carcinoma (OSCC) cell lines, Ca922, OSC20, OECM-1, OC3, CGHNC9, HSC3, plus A549, MDA-MB-231, MCF7, Huh7, HeLa-Kyoto, Detroit 562, H520, H2170, and 293T cells were used in this study. Ca922, CGHNC9, MDA-MB-231, MCF7, Huh7, HeLa-Kyoto, Detroit 562, and 293T cells were all cultured in high-glucose Dulbecco's Modified Eagle Medium (DMEM). OSC20 and HSC3 cells were cultured in Dulbecco's Modified of Eagle's Medium/Ham's F-12 50/50 Mix (1:1). OECM-1, A549, H520, and H2170 cells were grown in RPMI-1640 medium. All culture media were supplemented with 10% fetal bovine serum (FBS) and 1% penicillin-streptomycin. OC3 cells were cultured in 1:1 DMEM/KSFM (keratinocyte serum-free medium) with supplied supplement of Bovine pituitary extract (BPE) and epidermal growth factor (EGF) followed by instruction. All the cells in this study were maintained at 37° C. in humidified atmosphere containing 5% CO2.
(§2) WST-8 [2-(2-methoxy-4-nitrophenyl)-3-(4-nitrophenyl)-5-(2,4-disulfophenyl)-2H-tetrazolium, monosodium salt] cell viability assay
(§3) Cells were seeded into 96 well plate and incubated at 37° C. overnight. Endpoint measures of TMR-GBP or drugs were performed by water soluble tetrazolium salt (WST-8)-based colorimetric assay in triplicate which measures the metabolic conversion of WST-8 into formazan by mitochondrial dehydrogenases present in viable cells. The amount of formazan produced is proportional to the number of live cells and is expressed as cellular viability. When time was up, media were removed and supplemented with WST-8 cell viability reagent-contained cell culture medium (1:10) and incubated at 37° C. for 2 hours. Besides, three wells with WST-8-dissolved medium only (without cells) were reserved as a background control. Cell viability was measured at the absorbance of 450/655 nm wavelength by ELISA reader.

[1] = system: Poly (ADP-ribose) polymerase (PARP); assay: Western blotting of PARP cleavage; format: cell-based, human
Description: Protein expression of Poly (ADP-ribose) polymerase (PARP) were examined in Ca922 cells treated with 25 μM TMR-GBP for 6 hours.
(§4) Protein lysate of Ca922 cells treated with TMR-GBP 25 μM were blotted with antibodies against Caspase-3, Caspase-7, Caspase-9 and Poly (ADP-ribose) polymerase (PARP). Representative blots are shown.
(§5) Western Blotting Analysis
(§6) Cells were harvested by trypsion or scratch and lysed in RIPA buffer (50 mM Tris-HCl, pH 7.4, 150 mM NaCl, 0.1% SDS, 0.5% Sodium deoxycholate, 1% NP-40) supplemented with 1× protease inhibitor cocktail. Sample was incubated on ice for 30 minutes and scraped every 10 minutes. Centrifuge at 13,000 rpm at 4° C. for 15 minutes, then collect supernatant for analysis. Protein concentration was determined by Bradford assay. First, 5× Bradford assay dye reagent was diluted into […], and mixture with RIPA (as standard) or samples. Concentration was obtained by spectrophotometer measurement. Equal volume of 2× laemmli buffer containing β-ME was added into protein lysate for goal concentration. Protein samples were boiled at 100° C. for 15 minutes and resolved by 10% SDS-PAGE gel or 4%-15% gradient gel. […] Washing the membrane three times with 1×PBST for every 5 minutes, protein band was detected by modified ECL (ddH2O, […] Tris pH8.0, 200 μM p-coumaric acid, 1.25 mM luminal, 0.001% H2O2) with ImageQuant LAS 4000 digital imaging system.

phospho-γH2Ax = assay: Immunofluorescence staining of phospho-γH2Ax (DNA damage); format: cell-based, human
Description: Representative images showing DAPI-labelled nucleus (shown in blue) co-stained with phospho-γH2Ax (green). Ca922 cells were treated with 25 μM TMR-GBP for 12 or 24 hours followed by immunofluorescence staining. Foci in the nucleus indicated damaged DNA. Scale bar indicates 10 μm.
At least 20 cells were counted in each category. Bars indicate standard deviations from three independent experiments.
Immunofluorescence Staining
Cells grown on coverslips were washed with 1×PBS and fixed by PTEMF buffer (20 mM PIPES pH 6.8, 0.2% Triton X-100, 10 mM EGTA, 1 mM MgCl2, and 4% formaldehyde) or 4% paraformaldehyde for 10 minutes at room temperature. Then, fixation buffer was replaced with 1×PBST and the cells were washed with 1×PBST for another 10 minutes at room temperature. Coverslips were washed with 1×PBST twice gently and incubated with primary antibodies at room temperature for 1 hour. Next, washed with PBST for three times (2, 2, 5 minutes). Afterwards, coverslips were cultured in Alex Fluor-conjugated secondary antibodies and DAPI at room temperature for 30 minutes, washed three times (2, 2, 5 minutes), rinsed with ddH2O and mounted with mounting medium. Antibodies concentration used in this analysis is 1:1000 dilution. Images were acquired with specific fluorescence wavelength by Leica DMI6000 inverted microscope equipped with HCX PL FL 100λ/NA1.40 objective and EMCCD camera. All images were analyzed by MetaMorph software.

Detroit 562 = assay: WST-8 cell viability assay, Detroit 562; format: cell-based; conditions: Detroit 562 (pharynx cancer), different concentrations, 48 hours, FIG. 5
Description: as §1, §2, §3

Bax = assay: Western blotting of pro-apoptotic protein Bax; format: cell-based, human; conditions: Ca922, 25 μM, indicated time points, FIG. 6C
Description: Protein expression of pro-apoptotic protein Bax were examined in Ca922 cells treated with 25 μM TMR-GBP for indicated time points. The relative protein level was presented below the blot as ratios which was normalized to Bax value of control cells (0 hour).
as §5
as §6, with “gel. Then, transfer to PVDF membrane by 100V or 110V voltage for 1 hour.” for “gel.”

Caspase-7 = assay: Western blotting of Caspase-7; format: cell-based, human; conditions: Ca922, 25 μM, FIG. 11B
Description: as §4, §5
as §6, with “gel. Then, transfer to PVDF membrane by 100V or 110V voltage for 1 hour.” for “gel.”

For CN(C)c1ccc2c(-c3ccc(C(=O)N[C@@H](CC(N)=O)C(=O)N[C@@H](Cc4ccc(O)cc4)C(=O)N[C@@H](CCCNC(=N)N)C(=O)N[C@@H](Cc4c[nH]c5ccccc45)C(=O)N[C@@H](CCCNC(=N)N)C(=O)N[C@@H](CS)C(=O)N[C@@H](CCCCN)C(=O)N[C@@H](CC(N)=O)C(=O)N[C@@H](CCC(N)=O)C(=O)N[C@@H](CC(N)=O)C(=O)O)cc3C(=O)[O-])c3ccc(=[N+](C)C)cc-3oc2c1 [TMR-GBP] (X1-NYRWRCKNQN-OH; N-terminus and C-terminus assumed), the “cytotoxicity (cell viability)” value (H520) was “could induce cytotoxicity”, the PARP cleavage ([1]; Ca922, 25 μM, 6 hours, FIG. 11A) was “induced PARP cleavage” and the “PARP cleavage after calpain inhibitor” value ([1]; Ca922, calpain inhibitor pretreated 30 minutes before TMR-GBP, FIG. 11D) was “still induced PARP cleavage”. For the same compound, the “phospho-γH2Ax foci in the nucleus (DNA damage)” value (phospho-γH2Ax; Ca922, 25 μM TMR-GBP, 12 or 24 hours, FIG. 10A) was “many foci were observed accumulating in the nucleus”, the “increase of nuclear γH2Ax intensity” value (phospho-γH2Ax; Ca922, 25 μM, over control cells or cells co-treated with TMR-GBP and NAC, FIG. 10B) was 4 folds and the “phospho-γH2Ax signal, co-treated with NAC” value (phospho-γH2Ax; Ca922, co-treated with TMR-GBP and NAC, FIG. 10A) was “hardly detected any phospho-γH2Ax signal”. For the same compound, the “cytotoxicity (cell viability)” value (Detroit 562) was “could induce cytotoxicity”, the “protein expression of Bax” value (Bax) was “increased” and the “activation of caspase-7” value (Caspase-7) was “did not activate”.
